Experimental data from US20230406883A1, “COMPOUNDS AND THEIR USE IN TREATMENT OF TACHYKININ RECEPTOR MEDIATED DISORDERS” (Embark Biotech ApS, priority 2020, published 2023).
Several values for one entry are separate records, joined by “and”; a condition that tells them apart may be missing. Equal values may be shown once. Numbered stars: 1 amine (or outer) side, 2 acyl side, 3 side chain; on linkers, the order of the positions; unused ones are H or OH. Square brackets hold non-standard residues; d marks the D form. Peptide text beside a SMILES is read from it. * marks the point of attachment. C18 diacid = O=C(O)CCCCCCCCCCCCCCCCC(=O)*; γGlu = O=C(O)[C@H](CCC(=O)[*:2])N[*:1]; NMeL = CN[C@@H](CC(C)C)C(=O)O; hSer = N[C@@H](CCO)C(=O)O; Nle = CCCC[C@H](N)C(=O)O; AEEA = NCCOCCOCC(=O)O

Assays:
hNK2R [1] = biological target: T1, hNK2R (Homo sapiens, UniProt P21452); experiment: Hithunter cAMP assay (Gs-coupling) in transfected COS-7 cells; format: cell-based; details: COS-7 cells
T1 construct: host or cells: COS-7
T1 sequence (P21452 1-398): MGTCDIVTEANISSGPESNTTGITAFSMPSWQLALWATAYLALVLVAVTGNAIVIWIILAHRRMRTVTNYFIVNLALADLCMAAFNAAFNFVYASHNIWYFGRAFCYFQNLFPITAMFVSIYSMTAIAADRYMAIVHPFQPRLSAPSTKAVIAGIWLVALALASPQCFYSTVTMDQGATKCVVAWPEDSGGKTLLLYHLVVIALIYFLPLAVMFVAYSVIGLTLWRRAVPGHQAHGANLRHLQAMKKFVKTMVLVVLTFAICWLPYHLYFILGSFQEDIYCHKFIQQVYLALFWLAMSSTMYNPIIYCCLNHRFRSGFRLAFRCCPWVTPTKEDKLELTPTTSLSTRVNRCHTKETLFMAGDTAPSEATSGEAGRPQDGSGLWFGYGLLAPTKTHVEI
Description: (§1) As a secondary measure of agonist-induced G-protein coupled receptor (GPCR) activation cyclin adenosine monophosphate (cAMP) was measured by the Hithunter cAMP-assay from DiscoverX. Assays were carried out using COS-7 cells transiently transfected by calcium phosphate transfection with a vector pcDNA3.1(+) encoding one of the indicated receptors (Genscript). Briefly, DNA mixed with CaCl2 (2 M) and TE-buffer (10 mM Tris-HCl, 1 mM EDTA, pH 7.5) was dropwise added to 2×HBS (50 mM HEPES, 280 mM NaCl, 1.5 mM NaH2PO4, pH 7.2) and incubated for 45 min at room temperature (22±2° C.). The mixture and a final concentration of 100 μM Chloroquine were added to the cells and left to incubate for 5 hours at 37° C. under standard cell culture conditions (10% CO2) before changing medium to fresh maintenance medium.
The cAMP-assay takes advantage of the tachykinin receptors' ability to induce production of the cAMP second messenger upon agonist (ligand) binding on receptor expressing cells. Production of cAMP stems from receptor coupling to Gs-protein although coupling to Gq-protein (IP3-production) is considered the primary signalling mechanism by tachykinin receptors.
The assay was performed the day after transfection. Briefly, maintenance medium was aspirated, and plates were washed ×1 in HBSS before adding assay buffer (HBSS+1 mM IBMX), pre-incubated for 30 min at 37° C. followed by 15 min incubation with agonist (ligand) at 37° C. After incubation, plates were subjected to cell lysis and anti-cAMP-antibody incubation as described by manufacturer. Luminescence was measured with EnVision Multimode Plate Reader from Perkin Elmer.

in vivo = experiment: in vivo; design: species or system mice; details: mouse; for half-life: sc, 0.5 mg/kg
Description: Pharmacokinetics: To evaluate the in vivo half-life of individual peptide analogues we used wild type lean mice at around 10 weeks of age injected once with a peptide analogue. For each sample time point 3-4 mice were used and blood was drawn from the submandibular vein at indicated time points following injection. Prior to injection mice were given ad libitum access to standard chow diet. Mice were subcutaneously injected with 0.5 mg/kg peptide analogue in a volume of 2 ml/kg. The amount of peptide analogue and metabolite(s) present in blood samples were measured by TF-LC-MS and MetID-LC-MS, respectively. Sample preparation: One volume of plasma is precipitated with three volumes of ethanol (with internal standard). The mixture is centrifuged at 13000 g for 20 min. One volume of supernatant is diluted with two volumes of Milli-Q water (1% formic acid). Calibration curve: peptide analogue was spiked into blank mouse plasma. Range: 0.5 to 2000 nM (linear 1/x2).

hNK2R [2] = biological target: T1, hNK2R; experiment: 3H-NKA competitive binding on transfected COS-7 cells; details: competition with 3H-NKA, 4 h at 4 C
Description: as §1, with “Assays” for “As a secondary measure of agonist-induced G-protein coupled receptor (GPCR) activation cyclin adenosine monophosphate (cAMP) was measured by the Hithunter cAMP-assay from DiscoverX. Assays”
The ^3H-NKA binding assay measures peptide-receptor binding by a competitive principle of receptor binding between radioactively labelled (3H) NKA (tracer) and synthesized peptide ligands on live cells expressing the receptor of interest. Assay solutions used: TKR buffer (50 mM Tris/HCl pH 7.5, 5 mM MnCl2, and 150 mM NaCl), wash buffer (TKR buffer+0.2% w/v OvAlb), binding buffer (wash buffer+0.1 mg/ml Bacitracin), and tracer solution (binding buffer+˜15000 cpm/well ^3H-tracer). The assay was performed on ice the day after transfection.
Briefly, maintenance medium was aspirated, and plates were washed ×1 in cold wash buffer before adding 100 μl cold binding buffer and placing at 4° C. to let plates cool. The cold plates were added indicated peptides (ligand) immediately followed by addition of cold tracer solution (˜15000 cpm/well). Plates were immediately moved to 4° C. and incubated for 4 hours. After incubation, binding was stopped by wash ×2 with cold wash buffer before adding 225 μl Ultima Gold XR. Plates were shaken at medium speed for approximately 30 min and left overnight at room temperature before counting the plates in a MicroBeta plate counter (Perkin Elmer).

Plasma exposure [2 h] (in vivo) [µM] | Plasma exposure [26 h] (in vivo) [nM] | AUC (in vivo; 330 nmol/kg) [µM·h] | Cmax (in vivo; 330 nmol/kg) [µM] | Compound | EC50 (hNK2R [1]) | hNK2R, cAMP Efficacy (hNK2R [1]) | half-life (in vivo) [h] | half-life (in vivo; Half-life) [h] | EC50 (hNK2R [2])
– | – | – | – | COCC[C@H](NC(=O)[C@H](CC(C)C)N(C)C(=O)CNC(=O)[C@@H](NC(=O)[C@H](Cc1ccc(O)cc1)NC(=O)[C@H](CCCCN)NC(=O)[C@H](CC(=O)O)NC(=O)COCCOCCNC(=O)COCCOCCNC(=O)CC[C@H](NC(=O)CCCCCCCCCCCCCCCCC(=O)O)C(=O)O)C(C)C)C(N)=O [compound 344, *Asp;Lys;Tyr;Val;Gly;NmLeu;Metox;NH2] ({C18 diacid-γGlu-AEEA-AEEA}-DKYVG[NMeL][hSer](Me)-NH2) | 28 nM | 96% and 100% | 10.3 | ≥ 10 | 94 nM and 90 nM
– | – | – | – | COCC[C@H](NC(=O)[C@H](CC(C)C)N(C)C(=O)CNC(=O)[C@@H](NC(=O)[C@H](Cc1ccccc1)NC(=O)[C@H](CCCCN)NC(=O)[C@H](CC(=O)O)NC(=O)COCCOCCNC(=O)COCCOCCNC(=O)CC[C@H](NC(=O)CCCCCCCCCCCCCCCCC(=O)O)C(=O)O)[C@@H](C)O)C(N)=O [compound 383, *Asp;Lys;Phe;Thr;Gly;NmLeu;Metox;NH2] ({C18 diacid-γGlu-AEEA-AEEA}-DKFTG[NMeL][hSer](Me)-NH2) | ~11 nM | 89% | – | ≥ 10 | 11 nM
5.364 | 183 | 28.8 | 3.45 | CCCC[C@H](NC(=O)[C@H](CC(C)C)N(C)C(=O)CNC(=O)[C@@H](NC(=O)[C@H](Cc1ccc(O)cc1)NC(=O)[C@H](CCCCN)NC(=O)[C@H](CC(=O)O)NC(=O)COCCOCCNC(=O)COCCOCCNC(=O)CC[C@H](NC(=O)CCCCCCCCCCCCCCCCC(=O)O)C(=O)O)C(C)C)C(N)=O [compound 305, *Asp;Lys;Tyr;Val;Gly;NmLeu;Nle;NH2] ({C18 diacid-γGlu-AEEA-AEEA}-DKYVG[NMeL][Nle]-NH2) | 0.7 nM and ~0.8 nM | 50% and 70% | – | 5.5 | 21 nM and 210 nM and ~100 nM
– | – | – | – | CCCC[C@H](NC(=O)[C@H](CC(C)C)N(C)C(=O)CNC(=O)[C@@H](NC(=O)[C@H](Cc1ccccc1)NC(=O)[C@H](CCCCN)NC(=O)[C@H](CC(=O)O)NC(=O)COCCOCCNC(=O)COCCOCCNC(=O)CC[C@H](NC(=O)CCCCCCCCCCCCCCCCC(=O)O)C(=O)O)C(C)C)C(N)=O [compound 304, *Asp;Lys;Phe;Val;Gly;NmLeu;Nle;NH2] | 2.3 nM | 100% | – | ≥ 10 | 25 nM
